{
  "source": "paper PMC6469989",
  "about": "(ACS chemical biology, 2018)",
  "assay_type_in_all_cases": "cell-based",
  "key": {"[1]": {"test_system": "MCF-7 cells expressing doxycycline-inducible WT ERα", "experiment": "Inhibition of MCF-7 cell proliferation driven by WT ERα", "conditions": "Homo sapiens, MCF7, 120 h, read-out: Inhibition of Proliferation IC50 (nM ± SD)"}, "[2]": {"test_system": "MCF-7 cells expressing doxycycline-inducible L536R mutant ERα", "experiment": "Inhibition of MCF-7 cell proliferation driven by L536R mutant ERα", "conditions": "Homo sapiens, MCF7, 120 h, read-out: Inhibition of Proliferation IC50 (nM ± SD)"}, "[3]": {"test_system": "MCF-7 cells expressing doxycycline-inducible Y537S mutant ERα", "experiment": "cells", "conditions": "Homo sapiens, MCF7, 120 h, read-out: Inhibition of Proliferation IC50 (nM ± SD)"}, "[4]": {"test_system": "MCF-7 cells expressing doxycycline-inducible D538G mutant ERα", "experiment": "Inhibition of MCF-7 cell proliferation driven by D538G mutant ERα", "conditions": "Homo sapiens, MCF7, 120 h, read-out: Inhibition of Proliferation IC50 (nM ± SD)"}, "[5]": {"test_system": "mutant ERα (Y537S, D538G, L536R)", "experiment": "Inhibition of mutant ERα-mediated transcription", "conditions": "MCF-7 cells, 100 nM, 24 hours"}},
  "data": [
    {"compound": "C[C@]12CC[C@@H]3c4ccc(O)cc4C[C@@H](CCCCCCCCC[S+]([O-])CCCC(F)(F)C(F)(F)F)[C@H]3[C@@H]1CC[C@@H]2O", "note": "(some centres unmarked) [fulvestrant]", "values": [
      {"measurement": "IC50", "setting": "[1]", "result": "0.31 ± 0.03", "unit": "nM"},
      {"measurement": "IC50", "setting": "[2]", "result": "2.6 ± 0.4", "unit": "nM"},
      {"measurement": "IC50", "setting": "[3]", "result": "16 ± 1.8", "unit": "nM"},
      {"measurement": "IC50", "setting": "[4]", "result": "5.9 ± 0.6", "unit": "nM"}
    ]},
    {"compound": "C[C@]12C[C@H](c3ccc(OCCCCCS(=O)(=O)CCCC(F)(F)C(F)(F)F)cc3)[C@@H]3c4ccc(O)cc4CC[C@H]3[C@@H]1CC[C@@H]2O", "note": "[RU58668]", "values": [
      {"measurement": "inhibition of mutant ER transcriptional activity (in words)", "setting": "[5]", "result": "block much of the activity of all three mutants"}
    ]}
  ]
}
